Results published in ChEMBL document CHEMBL1154782, “Discovery of Trp-His and His-Arg analogues as new structural classes of short antimicrobial peptides” (J Med Chem, 2009).
In brackets after ≈: the same amount, converted by molar mass. Where a SMILES comes first, the peptide text is derived from it. The star is where a group is joined. Boc = CC(C)(C)OC(=O)*; NHBn = c1ccc(CN*)cc1

Columns and labels:
Staphylococcus aureus [1] = assay: Antibacterial activity against methicillin-resistant Staphylococcus aureus DSM 50128509 after 15 to 18 hrs under aerobic condition by modified broth microdilution method; assay type: functional
Staphylococcus aureus [2] = assay: Antibacterial activity against methicillin-resistant Staphylococcus aureus DSM 50128509; assay type: functional, organism-based
[3] = system: Staphylococcus epidermidis; assay: Antibacterial activity against methicillin-resistant Staphylococcus epidermidis DSM 50160384 after 15 to 18 hrs under aerobic condition by modified broth microdilution method; assay type: functional
[4] = system: Staphylococcus epidermidis; assay: Antibacterial activity against methicillin-resistant Staphylococcus epidermidis DSM 50160384; assay type: functional, organism-based
Escherichia coli [5] = assay: Antibacterial activity against Escherichia coli ATCC 35218 after 15 to 18 hrs under aerobic condition by modified broth microdilution method; assay type: functional
Escherichia coli [6] = assay: Antibacterial activity against Escherichia coli ATCC 35218; assay type: functional, organism-based
Klebsiella pneumoniae [7] = assay: Antibacterial activity against Klebsiella pneumoniae ATCC 700603 after 15 to 18 hrs under aerobic condition by modified broth microdilution method; assay type: functional
Klebsiella pneumoniae [8] = assay: Antibacterial activity against Klebsiella pneumoniae ATCC 700603; assay type: functional, organism-based
Pseudomonas aeruginosa [9] = assay: Antibacterial activity against Pseudomonas aeruginosa ATCC 9027 after 15 to 18 hrs under aerobic condition by modified broth microdilution method; assay type: functional
Candida albicans [10] = assay: Antifungal activity against Candida albicans ATCC 10231 after 15 to 18 hrs under aerobic condition by modified broth microdilution method; assay type: functional
Candida albicans [11] = assay: Antifungal activity against Candida albicans ATCC 10231; assay type: functional, organism-based
L929 = assay: Cytotoxicity against mouse L929 cells up to 200 ug/mL after 5 days by MTT assay; assay type: cell-based; settings: l929, 120 h
Pseudomonas aeruginosa [12] = assay: Antibacterial activity against Pseudomonas aeruginosa ATCC 9027; assay type: functional, organism-based

Compound | MIC (Staphylococcus aureus [1]) [µg/mL] | IC50 (Staphylococcus aureus [2]) [µg/mL] | MIC [3] [µg/mL] | IC50 [4] [µg/mL] | MIC (Escherichia coli [5]) [µg/mL] | IC50 (Escherichia coli [6]) [µg/mL] | MIC (Klebsiella pneumoniae [7]) [µg/mL] | IC50 (Klebsiella pneumoniae [8]) [µg/mL] | MIC (Pseudomonas aeruginosa [9]) [µg/mL] | MIC (Candida albicans [10]) [µg/mL] | IC50 (Candida albicans [11]) [µg/mL] | Activity (L929) | IC50 (Pseudomonas aeruginosa [12]) [µg/mL]
COC(=O)[C@H](CCCNC(=N)N)NC(=O)[C@@H](N)Cc1c[nH]c(C(C)(C)C)n1 | 20 (≈ 52.4 µM) | 5.39 (≈ 14.1 µM) | 20 (≈ 52.4 µM) | 2.53 (≈ 6.63 µM) | 200 (≈ 524 µM) | 18.5 (≈ 48.4 µM) | 200 (≈ 524 µM) | 10.5 (≈ 27.6 µM) | > 200 | 100 (≈ 262 µM) | 9.65 (≈ 25.3 µM) | Non-toxic | 
CC(C)(C)OC(=O)N[C@@H](Cc1c[nH]c(C(C)(C)C)n1)C(=O)N[C@@H](CCCNC(=N)N)C(=O)NCc1ccccc1 | 200 (≈ 359 µM) | 17.5 (≈ 31.5 µM) | > 200 |  | 100 (≈ 180 µM) | 12 (≈ 21.6 µM) | > 200 |  | > 200 | 200 (≈ 359 µM) | 33.1 (≈ 59.5 µM) | Non-toxic | 
COC(=O)[C@H](CCCNC(=N)N)NC(=O)[C@H](Cc1c[nH]c(C2CCCCC2)n1)NC(=O)OC(C)(C)C | 200 (≈ 394 µM) | 10.1 (≈ 19.9 µM) | 100 (≈ 197 µM) | 10 (≈ 19.7 µM) | 100 (≈ 197 µM) | 4.93 (≈ 9.71 µM) | > 200 |  | 200 (≈ 394 µM) | 100 (≈ 197 µM) | 9.44 (≈ 18.6 µM) | Non-toxic | 27.5 (≈ 54.2 µM)
COC(=O)[C@H](Cc1c[nH]c(C2CCCCC2)n1)NC(=O)[C@@H](N)Cc1c[nH]c2ccccc12 | 100 (≈ 229 µM) | 10.1 (≈ 23.1 µM) | 200 (≈ 457 µM) | 12.5 (≈ 28.5 µM) | > 200 |  | 200 (≈ 457 µM) | 29.4 (≈ 67.1 µM) | > 200 | > 200 |  | Non-toxic | 
COC(=O)[C@H](Cc1c[nH]c(C23CC4CC(CC(C4)C2)C3)n1)NC(=O)[C@@H](N)Cc1c[nH]c2ccccc12 | 20 (≈ 40.8 µM) | 2.3 (≈ 4.7 µM) | 20 (≈ 40.8 µM) | 4.59 (≈ 9.37 µM) | > 200 |  | 200 (≈ 408 µM) | 24.4 (≈ 49.9 µM) | > 200 | > 200 |  | Non-toxic | 
COC(=O)[C@H](Cc1c[nH]c(C2CCC2)n1)NC(=O)[C@@H](N)Cc1c[nH]c2ccccc12 | 200 (≈ 488 µM) | 9.54 (≈ 23.3 µM) | 200 (≈ 488 µM) | 14.5 (≈ 35.5 µM) | 200 (≈ 488 µM) | 9.48 (≈ 23.2 µM) | > 200 |  | > 200 | 200 (≈ 488 µM) | 18.2 (≈ 44.6 µM) | Non-toxic | 
COC(=O)[C@H](Cc1c[nH]c(C(C)C)n1)NC(=O)[C@@H](N)Cc1c[nH]c2ccccc12 | 200 (≈ 503 µM) | 13.1 (≈ 33 µM) | > 200 |  | 200 (≈ 503 µM) | 12.2 (≈ 30.7 µM) | > 200 |  | > 200 | 200 (≈ 503 µM) | 15.6 (≈ 39.3 µM) | Non-toxic | 
N=C(N)NCCC[C@H](NC(=O)[C@@H](N)Cc1c[nH]c(C2CCCCC2)n1)C(=O)NCc1ccccc1 | 20 (≈ 41.4 µM) | 2.06 (≈ 4.27 µM) | 5 (≈ 10.4 µM) | 1 (≈ 2.07 µM) | 200 (≈ 414 µM) | 17.5 (≈ 36.3 µM) | 200 (≈ 414 µM) | 23.5 (≈ 48.7 µM) | > 200 | 200 (≈ 414 µM) | 18 (≈ 37.3 µM) | Non-toxic | 
COC(=O)[C@H](CCCNC(=N)N)NC(=O)[C@@H](N)Cc1c[nH]c(C2CCC2)n1 | 200 (≈ 527 µM) | 9.28 (≈ 24.5 µM) | 100 (≈ 264 µM) | 6.66 (≈ 17.6 µM) | 200 (≈ 527 µM) | 15.3 (≈ 40.3 µM) | > 200 |  | > 200 | 200 (≈ 527 µM) | 14 (≈ 36.8 µM) | Non-toxic | 
CC(C)(C)OC(=O)N[C@@H](Cc1c[nH]c2ccccc12)C(=O)N[C@@H](Cc1c[nH]cn1)C(=O)NCc1ccccc1 (Boc-Trp-His-NHBn) | > 200 |  | 200 (≈ 377 µM) | 15.6 (≈ 29.4 µM) | > 200 |  | 200 (≈ 377 µM) | 21.2 (≈ 40 µM) | 200 (≈ 377 µM) | 200 (≈ 377 µM) | 9.7 (≈ 18.3 µM) | Non-toxic | 40.7 (≈ 76.7 µM)
COC(=O)[C@H](Cc1c[nH]cn1)NC(=O)[C@@H](N)Cc1c[nH]c2ccccc12 (H-Trp-His-OMe) | > 200 |  | > 200 |  | 200 (≈ 563 µM) | 18.5 (≈ 52.1 µM) | > 200 |  | > 200 | 200 (≈ 563 µM) | 20.6 (≈ 58 µM) | Non-toxic | 
O=C(O)c1cn(C2CC2)c2cc(N3CCNCC3)c(F)cc2c1=O [CIPROFLOXACIN] |  |  |  |  |  |  |  |  |  |  |  |  | 1.18 (≈ 3.56 µM)
NC[C@@H]1O[C@H](O[C@H]2[C@@H](O)[C@H](O[C@@H]3[C@@H](O)[C@H](N)C[C@H](N)[C@H]3O[C@H]3O[C@H](CN)[C@@H](O)[C@H](O)[C@H]3N)O[C@@H]2CO)[C@H](N)[C@@H](O)[C@@H]1O [FRAMYCETIN] |  |  |  |  |  |  |  | 0.6 (≈ 0.976 µM) |  |  |  |  | 
